Patent US11103505B2, “Formulations of a compound modulating kinases” (Plexxikon Inc., priority 2017, dated 2021)
“Also recorded” adds a separate entry of the source. Like-named read-outs stand apart in the source and are kept apart here. Each block holds one compound with its values, some of them ahead of it.

How the values were obtained:
[1] = Phase 1 Part B: effect of CYP3A4 inhibitor cobicistat on PK of Compound I (HME) in healthy subjects; type: in vivo, human
Method: (§1) A total of 40 adult subjects with a mean age of 37 years were enrolled. Part A enrolled subjects into four single dose cohorts of Compound I ranging from 150 to 900 mg, and the PK data were evaluated to select the most appropriate dose level to use in Part B (900 mg). […] All doses of each drug were administered in the fasted state. This study used an amorphous solid dispersion formulation of Compound I produced with a hot-melt extrusion (HME) process.

cytochrome P450 enzyme = cytochrome P450 enzyme (Homo sapiens, UniProt P08684); assay: CYP reaction phenotyping analysis; type: in vitro ADME
[2] = Phase 1 Part B: effect of CYP3A4 inhibitor cobicistat on PK of Compound I (HME) in healthy subjects; type: in vivo, human; remark: listed apart in the source
[3] = Phase 1 Part A: single ascending dose PK of Compound I (75 mg HME tablet) in healthy subjects; type: in vivo, human; details: for AUC(0-t) / AUC(0-inf) / Cmax / half-life / Vd/F / CL/F / t1/2: geometric mean (CV %); for Vd/F: read-out: Vz/F; for Tmax: median (minimum-maximum)
Method: The 75 mg tablet formulation (described in Table 4) was made using the hot melt extrusion (HME) process described in this disclosure. This 75 mg tablet was used in human clinical studies (single-dose study in healthy volunteers) and (repeat-dose study in cancer patients). […] Following repeat dosing, the steady state exposure at the highest dose evaluated (900 mg BID), AUCt=68700 ng·hr/mL, approached the target efficacious exposure (Table 7).
as §1

CYP3A4 = molecular target: T1, CYP3A4 (Homo sapiens, UniProt P08684); assay: Addition of CYP inhibitors: metabolism of Compound I; type: in vivo; details: observed in Phase I clinical trials
T1 construct: from tissue; host or cells: human subjects in vivo (endogenous enzyme)

[4] = 900 mg level, compared with Compound I administered alone
[5] = human, in vivo, oral, Compound I 900 mg single dose alone, Part B, HME, fasted, N = 10, geometric mean (% CV)
[6] = 300 mg level, compared with Compound I administered alone
[7] = human, in vivo, oral, Compound I 300 mg single dose alone, Part B, HME, fasted, N = 8, geometric mean (% CV)
[8] = human, in vivo, oral, single dose 150 mg, 75 mg HME tablet, fasted, N = 6
[9] = human, in vivo, oral, single dose 300 mg, 75 mg HME tablet, fasted, N = 5
[10] = human, in vivo, oral, single dose 450 mg, 75 mg HME tablet, fasted, N = 6
[11] = human, in vivo, oral, single dose 900 mg, 75 mg HME tablet, fasted, N = 6
[12] = single dose 150 mg, 75 mg HME tablet, fasted, N = 6
[13] = single dose 300 mg, 75 mg HME tablet, fasted, N = 5
[14] = single dose 450 mg, 75 mg HME tablet, fasted, N = 6
[15] = single dose 900 mg, 75 mg HME tablet, fasted, N = 6

cytochrome P450 enzyme, sequence (P08684 whole entry): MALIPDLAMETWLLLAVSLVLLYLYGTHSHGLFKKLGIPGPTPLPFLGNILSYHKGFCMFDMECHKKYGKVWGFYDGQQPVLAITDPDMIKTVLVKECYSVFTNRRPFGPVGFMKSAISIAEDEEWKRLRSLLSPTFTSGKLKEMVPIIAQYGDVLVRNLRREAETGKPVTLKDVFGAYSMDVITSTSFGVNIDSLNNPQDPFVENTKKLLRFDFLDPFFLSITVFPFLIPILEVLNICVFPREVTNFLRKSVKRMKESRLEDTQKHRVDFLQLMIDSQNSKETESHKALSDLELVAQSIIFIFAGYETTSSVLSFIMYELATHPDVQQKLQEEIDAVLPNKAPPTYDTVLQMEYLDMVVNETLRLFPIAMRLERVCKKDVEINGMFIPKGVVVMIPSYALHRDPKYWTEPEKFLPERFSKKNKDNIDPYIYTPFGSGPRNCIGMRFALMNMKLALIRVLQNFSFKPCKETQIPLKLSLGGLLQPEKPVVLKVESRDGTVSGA
T1 sequence (P08684 whole entry): as above

- increase of mean AUC0-t and AUC0-∞ with cobicistat co-administration [1, 4]: 3.8 fold
- increase of mean Cmax with cobicistat co-administration [1, 4]: 2.7 fold
- AUC(0-t) ([1]; human, in vivo, oral, 900 mg, Compound I 900 mg single dose alone, Part B, HME, fasted, N = 10, geometric mean (% CV)): 34800 ng·h/mL
- AUC(0-inf) [1, 5]: 35200 ng·h/mL
- Cmax [1, 5]: 11400 ng/mL
- half-life [1, 5]: 8.94 h
- Tmax ([1]; human, in vivo, oral, Compound I 900 mg single dose alone, Part B, HME, fasted, N = 10, median (minimum-maximum)): 2 h
- main cytochrome P450 enzyme responsible for metabolism (cytochrome P450 enzyme): CYP3A4
- increase of mean AUC0-t and AUC0-∞ with cobicistat co-administration [2, 6]: 2.6 fold
- increase of mean Cmax with cobicistat co-administration [2, 6]: 1.8 fold
- AUC(0-t) ([2]; human, in vivo, oral, 300 mg, Compound I 300 mg single dose alone, Part B, HME, fasted, N = 8, geometric mean (% CV), read-out: AUC0-24): 15800 ng·h/mL
- AUC(0-t) ([2]; human, in vivo, oral, 300 mg, Compound I 300 mg single dose alone, Part B, HME, fasted, N = 8, geometric mean (% CV), read-out: AUC0-t): 16200 ng·h/mL
- AUC(0-t) ([2]; human, in vivo, oral, 900 mg, Compound I 900 mg single dose alone, Part B, HME, fasted, N = 10, geometric mean (% CV), read-out: AUC0-24): 34100 ng·h/mL
- AUC(0-inf) [2, 7]: 16400 ng·h/mL
- Cmax [2, 7]: 4840 ng/mL
- half-life [2, 7]: 9.96 h
- Tmax ([2]; human, in vivo, oral, Compound I 300 mg single dose alone, Part B, HME, fasted, N = 8, median (minimum-maximum)): 2 h
- AUC(0-t) ([3]; human, in vivo, oral, 150 mg, single dose 150 mg, 75 mg HME tablet, fasted, N = 6, read-out: AUC0-12): 7240 ng·h/mL
- AUC(0-t) ([3]; human, in vivo, oral, 150 mg, single dose 150 mg, 75 mg HME tablet, fasted, N = 6, read-out: AUC0-24): 7720 ng·h/mL
- AUC(0-t) ([3]; human, in vivo, oral, 150 mg, single dose 150 mg, 75 mg HME tablet, fasted, N = 6, read-out: AUC0-t): 7870 ng·h/mL
- AUC(0-t) ([3]; human, in vivo, oral, 300 mg, single dose 300 mg, 75 mg HME tablet, fasted, N = 5, read-out: AUC0-12): 12100 ng·h/mL
- AUC(0-t) ([3]; human, in vivo, oral, 300 mg, single dose 300 mg, 75 mg HME tablet, fasted, N = 5, read-out: AUC0-24): 12600 ng·h/mL
- AUC(0-t) ([3]; human, in vivo, oral, 300 mg, single dose 300 mg, 75 mg HME tablet, fasted, N = 5, read-out: AUC0-t): 12900 ng·h/mL
- AUC(0-t) ([3]; human, in vivo, oral, 450 mg, single dose 450 mg, 75 mg HME tablet, fasted, N = 6, read-out: AUC0-12): 21000 ng·h/mL
- AUC(0-t) ([3]; human, in vivo, oral, 450 mg, single dose 450 mg, 75 mg HME tablet, fasted, N = 6, read-out: AUC0-24): 21800 ng·h/mL
- AUC(0-t) ([3]; human, in vivo, oral, 450 mg, single dose 450 mg, 75 mg HME tablet, fasted, N = 6, read-out: AUC0-t): 22100 ng·h/mL
- AUC(0-t) ([3]; human, in vivo, oral, 900 mg, single dose 900 mg, 75 mg HME tablet, fasted, N = 6, read-out: AUC0-12): 37500 ng·h/mL
- AUC(0-t) ([3]; human, in vivo, oral, 900 mg, single dose 900 mg, 75 mg HME tablet, fasted, N = 6, read-out: AUC0-24): 39200 ng·h/mL
- AUC(0-t) ([3]; human, in vivo, oral, 900 mg, single dose 900 mg, 75 mg HME tablet, fasted, N = 6, read-out: AUC0-t): 40000 ng·h/mL
- AUC(0-inf) [3, 8]: 7610 ng·h/mL
- Cmax [3, 8]: 2070 ng/mL
- half-life [3, 8]: 8.18 h
- Vd/F [3, 8]: 233 L
- Tmax ([3]; human, in vivo, oral, single dose 150 mg, 75 mg HME tablet, fasted, N = 6, read-out: tmax): 2 h
- AUC(0-inf) [3, 9]: 13200 ng·h/mL
- Cmax [3, 9]: 4180 ng/mL
- half-life [3, 9]: 9.56 h
- Vd/F [3, 9]: 313 L
- Tmax ([3]; human, in vivo, oral, single dose 300 mg, 75 mg HME tablet, fasted, N = 5, read-out: tmax): 2 h
- AUC(0-inf) [3, 10]: 22400 ng·h/mL
- Cmax [3, 10]: 7500 ng/mL
- half-life [3, 10]: 8.36 h
- Vd/F [3, 10]: 243 L
- Tmax ([3]; human, in vivo, oral, single dose 450 mg, 75 mg HME tablet, fasted, N = 6, read-out: tmax): 1 h
- AUC(0-inf) [3, 11]: 40400 ng·h/mL
- Cmax [3, 11]: 13300 ng/mL
- half-life [3, 11]: 9.12 h
- Vd/F [3, 11]: 293 L
- Tmax ([3]; human, in vivo, oral, single dose 900 mg, 75 mg HME tablet, fasted, N = 6, read-out: tmax): 1 h
- PK linearity ([3]; single ascending doses under fasted conditions): linear PK
- CL/F [3, 12]: 19.7 (46.9) L/hr
- t1/2 [3, 12]: 8.18 h
- CL/F [3, 13]: 22.7 (56.5) L/hr
- t1/2 [3, 13]: 9.56 h
- Tmax [3, 13]: 2.0 (1.0-2.0) hr
- CL/F [3, 14]: 20.1 (62.5) L/hr
- t1/2 [3, 14]: 8.36 h
- Tmax [3, 14]: 1.0 (1.0-2.0) hr
- CL/F [3, 15]: 22.3 (55.8) L/hr
- t1/2 [3, 15]: 9.12 h
- Tmax [3, 15]: 1.0 (1.0-2.0) hr
SMILES: O=C(c1c(F)ccc(NS(=O)(=O)N2CC[C@@H](F)C2)c1F)c1c[nH]c2ncc(-c3cnc(C4CC4)nc3)cc12 [Compound I, (R)-N-(3-(5-(2-cyclopropylpyrimidin-5-yl)-1H-pyrrolo[2,3-b]pyridine-3-carbonyl)-2,4-difluorophenyl)-3-fluoropyrrolidine-1-sulfonamide]
- exposure (Cmax and AUC) versus dose ([3]; single dose 150 to 900 mg, 75 mg HME tablet, fasted): dose-proportional increase in exposure; also recorded: Exposure increased dose proportionally

- effect of added CYP inhibitor on metabolism of Compound I (CYP3A4): blocked the metabolism of Compound I
SMILES: Nn1nnc2ccccc21 [ABT]
